Measured values from US20250375435A1, “COMPOUNDS FOR TREATING INFECTIONS” (Ohio State Innovation Foundation, priority 2022, published 2025).

Test system: Salmonella
Test: Single-infection mouse model with probiotic strain added 1:1 to wild-type or fraB mutant Salmonella
Type: in vivo, streptomycin-treated Swiss Webster mice
Conditions: presence or absence of probiotic or exogenous F-Asn, day 4 post-infection
Method: A quadruple mutant designated ASD203 (ASPII ASPI2 AfraRBDAE4 AasnB80:kan) was evaluated for use as a probiotic in combination with FraB inhibitors. This is a strain of Salmonella lacking SPI1 and SPI2 so that it cannot induce inflammation. Additionally, this strain cannot consume F-Asn due to a deletion of the entire fra island (fraR-fraBDAE). The ansB gene was also deleted as this asparaginase is capable of converting F-Asn to F-Asp. The addition of this probiotic should provide an inflammation resistant competitor to Salmonella for all nutrients except F-Asn, effectively forcing the use of F-Asn as a nutrient. […]
Mouse modeling experiments—For competition experiments, a 1:1 mixture of two different bacterial strains were inoculated intragastrically (i.g.) and then recovered from ceca to determine the competitive index (CI) of the two strains. […] CI was determined by plating on media selective for WT (LB cam) and mutant (LB kan). For the competitions with the fraB F214A mutant which is not marked, CI was determined by screening 52 individual colonies recovered from XLD plates for antibiotic resistance by patching on LB plates containing the appropriate antibiotic, thus the limit of detection on these experiments is less than two logs. […] CFU enumeration was determined by plating on media selective for WT (LB cam) and the mutant (LB kan). […]

fructose-asparagine [F-Asn]
numbers of fraB mutant bacteria recovered: not significantly different
